Legend:
EGFR T790M/L858R = target: T1, EGFR T790M/L858R (Homo sapiens, UniProt P00533, L858R/T790M); test: Mutant EGFR T790M/L858R activity inhibition assay (Caliper mobility shift); assay type: biochemical; details: read-out: enzyme activity inhibition (IC50) EGFR T790M/L858R
T1 construct: purchased Invitrogen PR8911A
Summary of the method: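 Compound added in 10% DMSO at 5-fold final concentration; substrate conversion read by Caliper mobility shift. Inhibition = (max−conversion)/(max−min)×100, with max from DMSO no-compound wells and min from no-enzyme wells; IC50 from fitted concentration–response curve.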

H1975 = test: Inhibition assay on tumor cell proliferation (CellTiter-Glo), H1975; assay type: cell-based, Human; details: Homo sapiens, NCI-H1975; H1975 (L858R and T790M EGFR double mutation), 72 hours, 10% bovine serum
H358 = test: Inhibition assay on tumor cell proliferation (CellTiter-Glo), H358; assay type: cell-based, Human; details: Homo sapiens, NCI-H358; H358 (wild-type EGFR), 72 hours, 10% bovine serum
Summary of the method: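 Viability from ATP content by CellTiter-Glo luminescence; inhibition normalised to DMSO (max) and medium-only (min) wells, IC50 by sigmoidal dose-response fitting. LOVO and H358 carry wild-type EGFR; HCC827 has exon 19 deletion.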

[1] = test system: EGFR phosphorylation in H1975 xenograft tumor; test: Pharmacodynamic experiments of tumor model (EGFR phosphorylation, Western blot); assay type: in vivo, Balb/C nude mice; details: oral 30 mg/kg
Description: Balb/C nude mice were purchased from Beijing Vital River Laboratory Animal Technology Co., Ltd., and housed in SPF animal room. The human non-small-cell lung cancer cell line H1975 in a culture dish was collected by trypsin-EDTA (0.25% trypsin, 1 mM EDTA), and then washed with a serum-free PBS solution. Lastly, the cells were implanted after diluted in a serum-free medium. Only the single cell suspension with a survival rate over 90% (Trypan blue rejection) can be used for injection. 5 million cells suspended in a 0.1 ml serum-free culture were injected into the front right flanking subcutaneous region of each mouse by using a 1 ml syringe and a 25G syringe needle, and the blood vessel was carefully avoided. The tumor size was measured in about one week after implantation. A caliper rule was used to measure the tumor size. The tumor volume was calculated by the following formula: tumor volume=(length×width^2)/2.
When the H1975 xenograft tumor reached a volume of about […], the animals were divided into 4 oral administration groups, that is, excipient control group (0 hour) and groups of 2 hours, 4 hours, and 8 hours after administration (3 to 4 animals at each time point). […]
20 mg of tumor tissue was homogenized in 300 μl of protein extract (RIPA, CST, #9806). […] The protein concentration was determined by Bradford method (Beyotime, # P0006). […]

T1 sequence (P00533 25-1210 T790M/L858R): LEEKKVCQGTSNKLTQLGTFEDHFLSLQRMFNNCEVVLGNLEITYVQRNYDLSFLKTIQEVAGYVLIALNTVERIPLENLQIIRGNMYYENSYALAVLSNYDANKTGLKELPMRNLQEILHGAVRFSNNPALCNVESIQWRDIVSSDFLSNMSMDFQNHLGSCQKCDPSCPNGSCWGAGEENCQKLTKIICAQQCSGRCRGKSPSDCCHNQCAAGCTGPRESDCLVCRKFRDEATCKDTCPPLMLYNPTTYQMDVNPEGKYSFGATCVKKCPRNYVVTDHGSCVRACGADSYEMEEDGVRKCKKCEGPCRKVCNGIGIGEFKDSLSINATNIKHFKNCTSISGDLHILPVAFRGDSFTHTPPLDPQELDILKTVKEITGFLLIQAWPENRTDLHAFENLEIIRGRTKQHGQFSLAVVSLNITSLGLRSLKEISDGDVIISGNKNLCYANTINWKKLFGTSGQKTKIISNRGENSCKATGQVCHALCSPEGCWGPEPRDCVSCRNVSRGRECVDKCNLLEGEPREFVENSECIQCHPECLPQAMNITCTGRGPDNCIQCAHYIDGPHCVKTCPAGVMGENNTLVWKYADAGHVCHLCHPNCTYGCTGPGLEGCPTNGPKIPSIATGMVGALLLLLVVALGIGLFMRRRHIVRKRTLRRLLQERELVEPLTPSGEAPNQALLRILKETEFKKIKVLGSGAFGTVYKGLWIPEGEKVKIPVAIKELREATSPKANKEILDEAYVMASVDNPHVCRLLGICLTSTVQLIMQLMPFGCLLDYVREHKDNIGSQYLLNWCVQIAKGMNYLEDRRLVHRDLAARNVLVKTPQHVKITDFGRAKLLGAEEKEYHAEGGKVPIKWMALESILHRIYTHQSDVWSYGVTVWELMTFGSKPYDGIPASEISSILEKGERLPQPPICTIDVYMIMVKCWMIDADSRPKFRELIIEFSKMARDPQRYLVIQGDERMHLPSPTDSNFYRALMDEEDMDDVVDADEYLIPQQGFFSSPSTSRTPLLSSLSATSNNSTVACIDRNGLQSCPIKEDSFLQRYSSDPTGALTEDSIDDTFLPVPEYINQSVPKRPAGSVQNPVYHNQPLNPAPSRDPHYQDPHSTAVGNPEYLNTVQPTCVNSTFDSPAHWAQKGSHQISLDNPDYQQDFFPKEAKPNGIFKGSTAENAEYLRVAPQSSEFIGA

IC50 (EGFR T790M/L858R): < 1 nM
IC50 (H1975): < 10 nM
IC50 (H358): 100 to 1000 nM
melting point: 225 to 227 °C
Structure (SMILES): C=CC(=O)Nc1cc(Nc2nccc(-n3c(=O)n(C(C)C)c4cc(F)ccc43)n2)c(OC)cc1N(C)CCN(C)C [Compound 91, N-(2-((2-(dimethylamino)ethyl)(methyl)amino)-5-(4-(5-fluoro-3-isopropyl-2-oxo-2,3-dihydro-1H-benzo[d]imidazol-1-yl)pyrimidin-2-ylamino)-4-methoxyphenyl)acrylamide]
inhibition of EGFR phosphorylation in H1975 tumor (in words) ([1]; at 2 hours and 4 hours): strong
inhibition of EGFR phosphorylation in H1975 tumor (in words) ([1]; at 8 hours): obvious inhibition effect

Reference: US11267802B2 (BEBETTER MED INC., priority 2015, dated 2022)
